Reference: patent publication US20030087834A1, “Increased fertility and improved fetal development drug” (priority 1999, published 2003)

Key:
[1] = tested on: Female Crl:CD(SD)BR Rats; assay: Food consumption in pregnant rats fed D-tagatose; type: in vivo, rat; conditions: for Food intake (g/animal) / Food intake (g/kg body wt/day): mean ±SD
From the text: (§1) Safety tests performed on tagatose in its development as a low-calorie sweetener included developmental toxicity studies in rats. Rats are accepted by the US FDA as good models for humans in studying safety and efficacy of food additives and drugs. Newly impregnated rats were placed on various doses of tagatose in their daily diet. Female rats were housed with males nightly in a one-to-one ratio, and each morning inspections for vaginal plugs were made, and in their absence, vaginal smears were taken and tested for sperm. Those females which had been mated were selected for monitoring of fetal development and assigned to tagatose dose groups in a manner so as to provide an equal distribution of mated females among groups and also to equalize the Day 0 gestation mean body weights among the groups. There were 24 mated females in each group. On Days 6-15 of gestation three of the groups received respective total doses of 4,000, 12,000 and 20,000 mg/kg body wt/day administered via gastric intubation in two equally divided doses separated by a four-hour interval. Each dose was administered in 30 ml/kg body weight of distilled, deionized water. […] For a period of 20 days following mating, the rats were observed and measurements taken daily. Upon the 20th day, the rats were killed and a wide variety of physical, toxicological, and fetal developmental parameters was determined for treatment effects. […] However, I noted unpredictable, novel and beneficial effects with respect to fertility and fetal development.
One of the common problems associated with pregnancy is overeating which can result in excess weight gain with its concomitant health risks to the mother and fetus. […] This represents a clear health advantage for both dam and fetus receiving tagatose.

[2] = tested on: human; assay: Examples 1-4: human taking tagatose before and during pregnancy; type: in vivo
From the text: A 70 kg human with a history of difficulty in conceiving begins taking tagatose twice daily at five g per dose, beginning one month before an attempt to conceive. […] A 70 kg human with a history of spontaneous abortions and stillbirths takes tagatose twice daily at five g per dose, beginning one month before an attempt to conceive. […] A 70 kg human takes precautions against giving birth to a below average weight infant by taking tagatose twice daily at five g per dose, beginning one month before an attempt to conceive. […] A 70 kg human inclined toward obesity desires a child, but is concerned that pregnancy may increase their food intake causing weight problems as experienced in their past pregnancies. They take tagatose twice daily at five g per dose, beginning one month before an attempt to conceive. […] They deliver a healthy, normal child.

[3] = tested on: Female Crl:CD (SD) BR Rats; assay: Developmental toxicity study in rats: reproductive performance and fetal development; type: in vivo, rat; conditions: for Females pregnant (%) / Fertility index / Litters with resorptions (%) / Number of dead fetuses / Number of females bearing viable fetuses / Number of females pregnant / Number of litters with resorptions / Total number of viable fetuses / Body weight (g) of viable fetuses / Body weight (g) of viable fetuses: Female fetuses / Body weight (g) of viable fetuses: Male fetuses / Number of corpora lutea / Number of female fetuses / Number of implantation sites / Number of males fetuses / Number of resorptions / Postimplantation loss = (resorptions/implantations) / Preimplantation loss = (corpora lutea-implants)/(corpora lutea): Days 6 to 15 of gestation; for Total number of viable fetuses: Day 20; for Body weight (g) of viable fetuses / Body weight (g) of viable fetuses: Female fetuses / Body weight (g) of viable fetuses: Male fetuses / Number of corpora lutea / Number of female fetuses / Number of implantation sites / Number of males fetuses / Number of resorptions / Postimplantation loss = (resorptions/implantations) / Preimplantation loss = (corpora lutea-implants)/(corpora lutea): mean ±SD
From the text: as §1

[4] = 4,000 mg/kg/day, Days 0-6 of pregnancy (pretreatment)
[5] = 4,000 mg/kg/day, Days 6-9 of pregnancy
[6] = 4,000 mg/kg/day, Days 9-12 of pregnancy
[7] = 4,000 mg/kg/day, Days 12-16 of pregnancy
[8] = 4,000 mg/kg/day, Days 16-20 of pregnancy (posttreatment)
[9] = 12,000 mg/kg/day, Days 0-6 of pregnancy (pretreatment)
[10] = 12,000 mg/kg/day, Days 6-9 of pregnancy
[11] = 12,000 mg/kg/day, Days 9-12 of pregnancy
[12] = 12,000 mg/kg/day, Days 12-16 of pregnancy
[13] = 12,000 mg/kg/day, Days 16-20 of pregnancy (posttreatment)
[14] = 20,000 mg/kg/day, Days 0-6 of pregnancy (pretreatment)
[15] = 20,000 mg/kg/day, Days 6-9 of pregnancy
[16] = 20,000 mg/kg/day, Days 9-12 of pregnancy
[17] = 20,000 mg/kg/day, Days 12-16 of pregnancy
[18] = 20,000 mg/kg/day, Days 16-20 of pregnancy (posttreatment)

## O=C(CO)[C@@H](O)[C@@H](O)[C@H](O)CO [D-tagatose]
[1]; [4]
  Food intake (g/animal): 144 ± 11 g/animal
  Food intake (g/kg body wt/day): 103 ± 7 g/kg body wt/day
[1]; [5]
  Food intake (g/animal): 70 ± 5 g/animal
  Food intake (g/kg body wt/day): 84 ± 4 g/kg body wt/day
[1]; [6]
  Food intake (g/animal): 78 ± 7 g/animal
  Food intake (g/kg body wt/day): 91 ± 5 g/kg body wt/day
[1]; [7]
  Food intake (g/animal): 112 ± 9 g/animal
  Food intake (g/kg body wt/day): 90 ± 5 g/kg body wt/day
[1]; [8]
  Food intake (g/animal): 129 ± 10 g/animal
  Food intake (g/kg body wt/day): 94 ± 3 g/kg body wt/day
[1]; [9]
  Food intake (g/animal): 148 ± 8 g/animal
  Food intake (g/kg body wt/day): 104 ± 8 g/kg body wt/day
[1]; [10]
  Food intake (g/animal): 58 ± 6 g/animal
  Food intake (g/kg body wt/day): 69 ± 7 g/kg body wt/day
[1]; [11]
  Food intake (g/animal): 73 ± 6 g/animal
  Food intake (g/kg body wt/day): 84 ± 5 g/kg body wt/day
[1]; [12]
  Food intake (g/animal): 105 ± 9 g/animal
  Food intake (g/kg body wt/day): 83 ± 5 g/kg body wt/day
[1]; [13]
  Food intake (g/animal): 137 ± 9 g/animal
  Food intake (g/kg body wt/day): 99 ± 5 g/kg body wt/day
[1]; [14]
  Food intake (g/animal): 149 ± 14 g/animal
  Food intake (g/kg body wt/day): 107 ± 9 g/kg body wt/day
[1]; [15]
  Food intake (g/animal): 43 ± 12 g/animal
  Food intake (g/kg body wt/day): 51 ± 14 g/kg body wt/day
[1]; [16]
  Food intake (g/animal): 67 ± 7 g/animal
  Food intake (g/kg body wt/day): 80 ± 7 g/kg body wt/day
[1]; [17]
  Food intake (g/animal): 94 ± 10 g/animal
  Food intake (g/kg body wt/day): 77 ± 6 g/kg body wt/day
[1]; [18]
  Food intake (g/animal): 138 ± 11 g/animal
  Food intake (g/kg body wt/day): 102 ± 6 g/kg body wt/day
[1]; except Day 6 to Day 9, attributed to laxation in the high dose groups
  Weight loss in the dams: no consistent weight loss in the dams
[1]; period on tagatose, Day 6 through Day 15
  Total daily food intake versus control group: less than the daily food intakes of rats in the control group
[2]; 70 kg human female, family history of low birth weight babies, five g twice daily
  Birth weight: delivers a baby within the normal birth weight range
[2]; 70 kg human inclined toward obesity, five g twice daily
  Food intake during pregnancy: their average daily diet does not increase
[2]; 70 kg human, history of difficulty conceiving, five g twice daily from one month before attempt
  Conception (increased fertility): their attempt is successful and they are pregnant
[2]; 70 kg human, history of spontaneous abortions and stillbirths, five g twice daily
  Live birth: delivering a live birth
[3]; 4,000 mg/kg/day
  Females pregnant (%): 100%
  Fertility index: 100
  Litters with resorptions (%): 78.3%
  Number of dead fetuses: 0
  Number of females bearing viable fetuses: 23
  Number of females pregnant: 23
  Number of litters with resorptions: 18
  Total number of viable fetuses: 354
  Body weight (g) of viable fetuses: 3.56 ± 0.21 g
  Body weight (g) of viable fetuses: Female fetuses: 3.49 ± 0.20 g
  Body weight (g) of viable fetuses: Male fetuses: 3.64 ± 0.22 g
  Number of corpora lutea: 17.7 ± 2.8
  Number of female fetuses: 8.0 ± 2.2
  Number of implantation sites: 16.5 ± 2.3
  Number of males fetuses: 7.4 ± 2.3
  Number of resorptions: 1.1 ± 0.9
  Postimplantation loss = (resorptions/implantations): 0.068 ± 0.051
  Preimplantation loss = (corpora lutea-implants)/(corpora lutea): 0.053 ± 0.113
[3]; 12,000 mg/kg/day
  Females pregnant (%): 91.3%
  Fertility index: 91.3
  Litters with resorptions (%): 28.6%
  Number of dead fetuses: 0
  Number of females bearing viable fetuses: 21
  Number of females pregnant: 21
  Number of litters with resorptions: 6
  Total number of viable fetuses: 322
  Body weight (g) of viable fetuses: 3.75 ± 0.32 g
  Body weight (g) of viable fetuses: Female fetuses: 3.65 ± 0.35 g
  Body weight (g) of viable fetuses: Male fetuses: 3.84 ± 0.33 g
  Number of corpora lutea: 17.7 ± 2.9
  Number of female fetuses: 7.5 ± 2.2
  Number of implantation sites: 15.9 ± 2.9
  Number of males fetuses: 7.8 ± 2.3
  Number of resorptions: 0.5 ± 0.9
  Postimplantation loss = (resorptions/implantations): 0.043 ± 0.087
  Preimplantation loss = (corpora lutea-implants)/(corpora lutea): 0.094 ± 0.151
[3]; 20,000 mg/kg/day
  Females pregnant (%): 100%
  Fertility index: 100
  Litters with resorptions (%): 54.2%
  Number of dead fetuses: 0
  Number of females bearing viable fetuses: 24
  Number of females pregnant: 24
  Number of litters with resorptions: 13
  Total number of viable fetuses: 350
  Body weight (g) of viable fetuses: 3.57 ± 0.24 g
  Body weight (g) of viable fetuses: Female fetuses: 3.49 ± 0.19 g
  Body weight (g) of viable fetuses: Male fetuses: 3.68 ± 0.27 g
  Number of corpora lutea: 17.4 ± 2.8
  Number of female fetuses: 7.1 ± 2.3
  Number of implantation sites: 15.3 ± 2.9
  Number of males fetuses: 7.5 ± 2.3
  Number of resorptions: 0.8 ± 0.8
  Postimplantation loss = (resorptions/implantations): 0.047 ± 0.049
  Preimplantation loss = (corpora lutea-implants)/(corpora lutea): 0.107 ± 0.162
[3]; 4,000, 12,000 and 20,000 mg/kg body wt/day via gastric intubation, Days 6-15 of gestation, killed Day 20
  Adverse effects in the dams or fetuses: No adverse effects in the dams or fetuses were found
[3]; each tagatose group, total, males and females
  Fetal weight versus control rats: weighed more than the fetuses of the control rats
[3]; fetuses from rats on tagatose, normal range 3.35-3.86 g males, 3.19-3.63 g females
  Fetal weight relative to normal weight range for age: within the normal weight range for their ages
